In ChEMBL document CHEMBL1201862, “PubChem BioAssay data set” (2004):
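Dose response: 5 concentrations. Exposure: 48 h. Format: 96-well plates. Endpoint: linear interpolation; highest concentration if not reached. Abbreviation: GI50, concentration required for 50% inhibition of growth.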 Active and inactive are the calls of the source. Rule as the data show it: active = GI50 up to about 1.1 µM and inactive = higher.

Columns and labels:
Assay in all cases: growth of human tumour cells (NCI), 48 h
ACHN = test system: ACHN
BT-549 = test system: BT-549
CAKI-1 = test system: CAKI-1
COLO 205 = test system: COLO 205
DU-145 = test system: DU-145
EKVX = test system: EKVX
HOP-62 = test system: HOP-62
K562 = test system: K562
Malme-3M = test system: Malme-3M
NCI-H522 = test system: NCI-H522
OVCAR-4 = test system: OVCAR-4
SK-MEL-28 = test system: SK-MEL-28
SK-MEL-2 = test system: SK-MEL-2
SK-OV-3 = test system: SK-OV-3
SN12C = test system: SN12C
SNB-75 = test system: SNB-75
SR = test system: SR
U-251 = test system: U-251
NCI-H460 = test system: NCI-H460
RXF 393 = test system: RXF 393

Row | SMILES | GI50 (ACHN) | GI50 (BT-549) | GI50 (CAKI-1) | GI50 (COLO 205) | GI50 (DU-145) | GI50 (EKVX) | GI50 (HOP-62) | GI50 (K562) | GI50 (Malme-3M) | GI50 (NCI-H522) | GI50 (OVCAR-4) | GI50 (SK-MEL-28) | GI50 (SK-MEL-2) | GI50 (SK-OV-3) | GI50 (SN12C) | GI50 (SNB-75) | GI50 (SR) | GI50 (U-251) | GI50 (NCI-H460) | GI50 (RXF 393)
1 | C[C@]12O[C@@]3(C)O[C@@]3(C)[C@]3(C)O[C@]3(C)[C@@]1(C)O2 | > 100 µM (inactive) | > 100 µM (inactive) | > 100 µM (inactive) | > 100 µM (inactive) | > 100 µM (inactive) | > 100 µM (inactive) | > 100 µM (inactive) | > 100 µM (inactive) | > 100 µM (inactive) | > 100 µM (inactive) | > 100 µM (inactive) | > 100 µM (inactive) | > 100 µM (inactive) | > 100 µM (inactive) | > 100 µM (inactive) | 0.598 µM (active) | > 100 µM (inactive) | > 100 µM (inactive) | – | –
2 | COc1ccc2c(c1)CCc1[nH]c3ccccc3c1CCCC2 | > 10 µM (inactive) | > 10 µM (inactive) | > 10 µM (inactive) | > 10 µM (inactive) | > 10 µM (inactive) | – | > 10 µM (inactive) | > 10 µM (inactive) | > 10 µM (inactive) | > 10 µM (inactive) | > 10 µM (inactive) | > 10 µM (inactive) | – | > 10 µM (inactive) | > 10 µM (inactive) | > 10 µM (inactive) | > 10 µM (inactive) | > 10 µM (inactive) | – | –
3 | COc1ccccc1CNC(=O)[C@H](Cc1ccc(O)cn1)NC(C)=O | > 100 µM (inactive) | > 100 µM (inactive) | > 100 µM (inactive) | > 100 µM (inactive) | > 100 µM (inactive) | > 100 µM (inactive) | > 100 µM (inactive) | > 100 µM (inactive) | > 100 µM (inactive) | > 100 µM (inactive) | > 100 µM (inactive) | > 100 µM (inactive) | > 100 µM (inactive) | > 100 µM (inactive) | > 100 µM (inactive) | – | > 100 µM (inactive) | > 100 µM (inactive) | > 100 µM (inactive) | > 100 µM (inactive)
4 | Cc1ccc(S(=O)(=O)Nc2nc3ccccc3c(=O)n2C2CCCCC2)cc1 | > 100 µM (inactive) | 28.1 µM (inactive) | 81.3 µM (inactive) | > 100 µM (inactive) | > 100 µM (inactive) | > 100 µM (inactive) | > 100 µM (inactive) | > 100 µM (inactive) | – | 41.7 µM (inactive) | 51.8 µM (inactive) | > 100 µM (inactive) | > 100 µM (inactive) | > 100 µM (inactive) | > 100 µM (inactive) | 53.1 µM (inactive) | > 100 µM (inactive) | 90.2 µM (inactive) | 97.1 µM (inactive) | 68.2 µM (inactive)
5 | O=C(NCCCN(CCCCN(CCCNC(=O)C(F)(F)F)Cc1ccc2ccccc2c1)Cc1ccc2ccccc2c1)C(F)(F)F | > 100 µM (inactive) | 6.22 µM (inactive) | – | 1.95 µM (inactive) | > 100 µM (inactive) | > 100 µM (inactive) | > 100 µM (inactive) | 2.48 µM (inactive) | – | 8.93 µM (inactive) | 2.62 µM (inactive) | 2.32 µM (inactive) | > 20 µM (inactive) | > 100 µM (inactive) | > 100 µM (inactive) | > 100 µM (inactive) | 2.7 µM (inactive) | 3.91 µM (inactive) | 2.21 µM (inactive) | 3.77 µM (inactive)
6 | CC1C(c2ccccc2)NC(c2ccccc2)CC1(N)C#N (stereo unspecified) | > 100 µM (inactive) | > 100 µM (inactive) | > 100 µM (inactive) | 43.4 µM (inactive) | > 100 µM (inactive) | > 100 µM (inactive) | > 100 µM (inactive) | > 100 µM (inactive) | – | > 100 µM (inactive) | > 100 µM (inactive) | > 100 µM (inactive) | – | > 100 µM (inactive) | > 100 µM (inactive) | > 100 µM (inactive) | > 100 µM (inactive) | > 100 µM (inactive) | > 100 µM (inactive) | > 100 µM (inactive)
7 | COC(=O)c1cc(C#N)[nH]c1-c1cccs1 | 89.9 µM (inactive) | 31.8 µM (inactive) | 56.8 µM (inactive) | > 100 µM (inactive) | 86.9 µM (inactive) | 91.2 µM (inactive) | 47.8 µM (inactive) | > 100 µM (inactive) | – | 33.9 µM (inactive) | > 100 µM (inactive) | > 100 µM (inactive) | – | > 100 µM (inactive) | > 100 µM (inactive) | 25.8 µM (inactive) | > 100 µM (inactive) | > 100 µM (inactive) | > 100 µM (inactive) | 22.6 µM (inactive)
8 | C[C@H]1CC[C@H]([C@@H](C)[C@H]2[C@@H](O)C[C@H]3[C@@H]4CC[C@H]5C[C@@H](O)CC[C@]5(C)[C@H]4CC[C@]23C)NC1 | 21.2 µM (inactive) | 17.5 µM (inactive) | 16.1 µM (inactive) | 19.6 µM (inactive) | 16.2 µM (inactive) | 16.3 µM (inactive) | 23.7 µM (inactive) | – | 15.7 µM (inactive) | 15.8 µM (inactive) | 15.8 µM (inactive) | 18.7 µM (inactive) | 19.6 µM (inactive) | 15.9 µM (inactive) | 16.3 µM (inactive) | – | 6.34 µM (inactive) | 15.8 µM (inactive) | 20.2 µM (inactive) | 20.6 µM (inactive)
9 | COc1ccc(NC2=NCCO2)c2c1CCCC2 | 29.6 µM (inactive) | 30.2 µM (inactive) | 54.1 µM (inactive) | 28.2 µM (inactive) | 51.2 µM (inactive) | 47.8 µM (inactive) | – | 28.3 µM (inactive) | 34.1 µM (inactive) | 31.8 µM (inactive) | 58.7 µM (inactive) | 30.9 µM (inactive) | 18.8 µM (inactive) | 18.4 µM (inactive) | – | 27.3 µM (inactive) | 29.2 µM (inactive) | 25.8 µM (inactive) | 34.5 µM (inactive) | 21.4 µM (inactive)
10 | Cc1ccc(-c2cc[n+]3c(n2)oc2ccccc23)cc1 | 28.6 µM (inactive) | 28.2 µM (inactive) | 41.5 µM (inactive) | 12.4 µM (inactive) | 51.8 µM (inactive) | 26.4 µM (inactive) | – | 4.84 µM (inactive) | 13.2 µM (inactive) | 5.98 µM (inactive) | 16 µM (inactive) | 22.1 µM (inactive) | 22.8 µM (inactive) | 33.6 µM (inactive) | > 100 µM (inactive) | 25 µM (inactive) | 11 µM (inactive) | 36.7 µM (inactive) | 72.8 µM (inactive) | –
11 | C=CCOc1ccc(C(=N/NC(=O)c2ccccc2)/N=N/c2ccc([N+](=O)[O-])cc2)cc1OC | > 100 µM (inactive) | > 100 µM (inactive) | > 100 µM (inactive) | > 100 µM (inactive) | 77.4 µM (inactive) | > 100 µM (inactive) | > 100 µM (inactive) | – | > 100 µM (inactive) | > 100 µM (inactive) | > 100 µM (inactive) | > 100 µM (inactive) | > 100 µM (inactive) | – | > 100 µM (inactive) | > 100 µM (inactive) | > 100 µM (inactive) | > 100 µM (inactive) | 64.1 µM (inactive) | > 100 µM (inactive)
12 | O=C1Nc2ccccc2C(=O)O/C(Cc2ccccc2)=N\c2ccccc21 | > 100 µM (inactive) | > 100 µM (inactive) | > 100 µM (inactive) | > 100 µM (inactive) | > 100 µM (inactive) | > 100 µM (inactive) | > 100 µM (inactive) | > 100 µM (inactive) | – | > 100 µM (inactive) | > 100 µM (inactive) | > 100 µM (inactive) | > 100 µM (inactive) | > 100 µM (inactive) | > 100 µM (inactive) | 25.9 µM (inactive) | > 100 µM (inactive) | > 100 µM (inactive) | > 100 µM (inactive) | > 100 µM (inactive)
13 | COc1ccc(-c2cc(-c3ccccc3)nc3c2CC(=O)Nc2ccccc2-3)cc1OC | 4.67 µM (inactive) | > 100 µM (inactive) | > 100 µM (inactive) | > 27.9 µM (inactive) | > 100 µM (inactive) | > 100 µM (inactive) | 1.81 µM (inactive) | 1.45 µM (inactive) | – | > 76.7 µM (inactive) | 1.2 µM (inactive) | > 100 µM (inactive) | > 100 µM (inactive) | 5.74 µM (inactive) | 1.26 µM (inactive) | 0.424 µM (active) | 8.18 µM (inactive) | 4.17 µM (inactive) | > 100 µM (inactive) | 6.73 µM (inactive)
14 | CC(C)=CCN=C(N)N | > 100 µM (inactive) | > 100 µM (inactive) | > 100 µM (inactive) | > 100 µM (inactive) | > 100 µM (inactive) | > 100 µM (inactive) | – | – | > 100 µM (inactive) | > 100 µM (inactive) | > 100 µM (inactive) | > 100 µM (inactive) | > 100 µM (inactive) | > 100 µM (inactive) | > 100 µM (inactive) | – | 16.7 µM (inactive) | > 100 µM (inactive) | > 100 µM (inactive) | > 100 µM (inactive)
15 | O=C(NCP(=O)(O)O)c1cccnc1 [(NICOTINAMIDOMETHYL)PHOSPHONIC ACID] | > 100 µM (inactive) | > 100 µM (inactive) | > 100 µM (inactive) | > 100 µM (inactive) | > 100 µM (inactive) | > 100 µM (inactive) | > 100 µM (inactive) | > 100 µM (inactive) | – | – | > 100 µM (inactive) | > 100 µM (inactive) | > 100 µM (inactive) | > 100 µM (inactive) | > 100 µM (inactive) | 92.3 µM (inactive) | > 100 µM (inactive) | > 100 µM (inactive) | > 100 µM (inactive) | > 100 µM (inactive)
